Values joined by “and” are separate entries in the source; they are usually repeats but may differ in a detail not shown here. Equal entries are not always repeated.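 Test compounds were applied to cells in 96-well plates for 48 hours at 5 doses. The concentration for 50% growth inhibition is given as GI50. Definition used: TGI = concentration required for complete inhibition of growth.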
How the values were obtained:
Assay in all cases: growth of human tumour cells (NCI), 48 h
HT29 colon = test system: HT29 colon
CAKI-1 renal = test system: CAKI-1 renal
COLO 205 colon = test system: COLO 205 colon
NCI-H23 lung = test system: NCI-H23 lung
NCI-H226 lung = test system: NCI-H226 lung
IGROV1 ovarian = test system: IGROV1 ovarian
SK-OV-3 ovarian = test system: SK-OV-3 ovarian
SK-MEL-2 melanoma = test system: SK-MEL-2 melanoma
LOX IMVI melanoma = test system: LOX IMVI melanoma
786-0 renal = test system: 786-0 renal

| Structure (SMILES) | GI50 (HT29 colon) | TGI (HT29 colon) | GI50 (CAKI-1 renal) | TGI (CAKI-1 renal) | GI50 (COLO 205 colon) | TGI (COLO 205 colon) | GI50 (NCI-H23 lung) | TGI (NCI-H23 lung) | GI50 (NCI-H226 lung) | TGI (NCI-H226 lung) | GI50 (IGROV1 ovarian) | TGI (IGROV1 ovarian) | GI50 (SK-OV-3 ovarian) | TGI (SK-OV-3 ovarian) | GI50 (SK-MEL-2 melanoma) | TGI (SK-MEL-2 melanoma) | GI50 (LOX IMVI melanoma) | TGI (LOX IMVI melanoma) | GI50 (786-0 renal) | TGI (786-0 renal) |
| --- | --- | --- | --- | --- | --- | --- | --- | --- | --- | --- | --- | --- | --- | --- | --- | --- | --- | --- | --- | --- |
| CCOC(=O)c1cc2c(n1Cc1ccccc1)-c1oncc1CC2 | 3.23 µM | 14.4 µM | 3.24 µM | 18.8 µM | 3.93 µM | 14.2 µM | 6.37 µM | 67.1 µM | 10.7 µM | > 100 µM | 4.98 µM | 60.1 µM | 7.07 µM | 93.1 µM | 6.15 µM | 27.3 µM | 5.5 µM | 25.4 µM | 7.51 µM | 34.2 µM |
| Cc1cc(C)nc(SC2=C(Nc3cccc(Cl)c3C)C(=O)N(Cc3ccccc3)C2=O)n1 | > 160 µM | > 160 µM | > 160 µM | > 160 µM | > 160 µM | > 160 µM | > 160 µM | > 160 µM | > 160 µM | > 160 µM | > 160 µM | > 160 µM | > 160 µM | > 160 µM | > 160 µM | > 160 µM | > 160 µM | > 160 µM | > 160 µM | > 160 µM |
| CCCCCCCCCCCCOC1C(CNC(=O)C2OC3OC(C)(C)OC3C2NC(=O)CN2CCCCCC2)OC2OC(C)(C)OC21 (centres undefined) | 1.87 µM | 3.74 µM | 13 µM | 26.8 µM | 2.49 µM | 6.76 µM | 10.9 µM | 24.8 µM | 16.7 µM | 38.1 µM | 5.03 µM | 15.2 µM | 16.2 µM | 30.8 µM | 5.69 µM | 12 µM | 3.17 µM | 9.25 µM | 10.4 µM | 23.4 µM |
| O=C([O-])c1ccc(C(=O)[O-])cc1.O=C([O-])c1ccc(C(=O)[O-])cc1.[Mo+2].[Mo+2] | > 100 µM | > 100 µM | > 100 µM | > 100 µM | > 100 µM | > 100 µM | > 100 µM | > 100 µM | > 100 µM | > 100 µM | > 100 µM | > 100 µM | > 100 µM | > 100 µM | > 100 µM | > 100 µM | > 100 µM | > 100 µM | > 100 µM | > 100 µM |
| CCOC(=O)NC(=O)c1cn(CCN2CCN(C(=O)CCCCCCCCCCNc3ncnc4nc[nH]c34)CC2)c(=O)[nH]c1=O | – | > 100 µM | – | > 100 µM | – | > 100 µM | – | > 100 µM | – | > 100 µM | – | > 100 µM | – | > 100 µM | – | > 100 µM | – | > 100 µM | – | > 100 µM |
| O=C(O)c1ccc2c(c1)nc(Nc1cccc(Cl)c1)c1ccncc12 | 5.48 µM and 6.26 µM | 33.3 µM and > 10 µM | 1.31 µM and 1.96 µM | 5.73 µM and 7.22 µM | 4.21 µM and 3.67 µM | 15.1 µM and > 10 µM | 2.37 µM and 2.98 µM | 8.29 µM and > 10 µM | 1.77 µM and 2.77 µM | > 20.3 µM | 3.56 µM and 2.68 µM | – | 2.98 µM and 2.42 µM | 11.6 µM and 7.52 µM | 2.4 µM and 1.86 µM | 7.11 µM and 5.59 µM | 2.04 µM and 2.7 µM | 10.7 µM and > 10 µM | 3.7 µM and 4.2 µM | 18.6 µM and > 10 µM |
| COc1ccc(Cn2cc3c(c2-c2cc(OC)c(OC)c(OC)c2)CCc2cnoc2-3)cc1[N+](=O)[O-] | 0.411 µM | 2.28 µM | 0.747 µM | > 60.4 µM | 0.73 µM | 3.28 µM | 1.46 µM | > 30.3 µM | 4.33 µM | > 100 µM | 0.82 µM | 51.5 µM | 1.08 µM | > 30.2 µM | 0.366 µM | 10.3 µM | 0.898 µM | > 100 µM | 6.74 µM | > 43.5 µM |
| CCCCC#CC#Cc1cccc(=O)o1 | 13.5 µM | 36.1 µM | 22.5 µM | 60 µM | 17.7 µM | 35 µM | 18.4 µM | 36.2 µM | 16.3 µM | 38.3 µM | 30.7 µM | 75.8 µM | 27.3 µM | 46.7 µM | 38.6 µM | 69.3 µM | 16.2 µM | 32.3 µM | 16.6 µM | 34.6 µM |
| Cc1c(NC(=O)OC[C@@H]2COCCN2)cn2ncnc(Nc3ccc4c(cnn4Cc4cccc(F)c4)c3)c12 | 6.38 µM and 4.65 µM | > 10 µM and 16.9 µM | > 10 µM and 1.36 µM | > 10 µM and 15.5 µM | 4.75 µM and 5.07 µM | > 10 µM and 16.9 µM | > 10 µM and 11.9 µM | > 10 µM and 26.4 µM | > 10 µM and 11.3 µM | > 10 µM and 35.6 µM | 0.855 µM and 2.16 µM | > 10 µM and 19.9 µM | 1.09 µM and 0.711 µM | > 10 µM and 16.6 µM | > 10 µM and 12.9 µM | > 10 µM and 29.4 µM | 5.8 µM and 5.39 µM | > 10 µM and 19.4 µM | 8.46 µM and 6.1 µM | > 10 µM and 24.1 µM |
| COc1ccc(C(=O)COc2cccc(/C=C3\CSc4ccc(C)cc4C3=O)c2)cc1 | 6.02 µM | > 100 µM | 28.7 µM | > 100 µM | 31.8 µM | > 100 µM | 6.99 µM | > 100 µM | > 100 µM | > 100 µM | 12.2 µM | 43.8 µM | 74.2 µM | > 100 µM | 15.9 µM | > 100 µM | 2.53 µM | 8.06 µM | 38.5 µM | > 100 µM |
| CC(=O)[O][Hg][c]1ccccc1 | 0.626 µM | 2.46 µM | 0.964 µM | 2.89 µM | 0.65 µM | 1.67 µM | 0.682 µM | 3.46 µM | 1.12 µM | 4.81 µM | 0.295 µM | 0.934 µM | 1.37 µM | 2.68 µM | 0.401 µM | 1.27 µM | 0.227 µM | 0.696 µM | 1.43 µM | 2.82 µM |
| COc1cc([C@@H]2c3cc4c(cc3[C@@H](NC(=O)c3cccc(F)c3)C3COC(=O)[C@@H]32)OCO4)cc(OC)c1O (some centres undefined) | – | 15.4 µM | – | 22.5 µM | – | 22.1 µM | – | 3.18 µM | – | 2.2 µM | – | 10.6 µM | – | 5.78 µM | – | 18 µM | – | 15.1 µM | – | 2.26 µM |
| CCc1nc(N)nc(N)c1-c1ccc(NCCc2ccccc2)c([N+](=O)[O-])c1 | – | 22.4 µM | – | > 71.3 µM | – | 16.9 µM | – | > 54.1 µM | – | > 69.7 µM | – | 47.8 µM | – | > 74.6 µM | – | 36.7 µM | – | > 100 µM | – | 17 µM |
